Article PMC12429841, “Monothiooxalamide–Benzothiazole Hybrids: Predictive Docking on HDAC6, Synthesis, Molecular Structure, and Antiproliferative Activity on Breast Cancer Cells” (International Journal of Molecular Sciences, 2025)

What was measured:
MCF-7 cells [1] = assay: Antiproliferative activity, MTT assay, MCF-7; format: cell-based, human; conditions: for IC50: Homo sapiens, MCF7, MTT, mean ± SD of at least three independent experiments
Protocol: (§1) The antiproliferative effect of monothiooxalamides 1a–d and 2a–d was assessed in MCF-7 (human breast cancer cell line with estrogen, progesterone, and glucocorticoid receptors), MDA-MB-231 (triple-negative human breast cancer), MCF-10A (non-tumorigenic human mammary epithelial cell line), and NIH/3T3 (mouse fibroblast). The cytotoxicity is expressed as IC50 values in micromolar concentrations, Table 4. […] In contrast, the cytotoxic effect on triple-negative cells MDA-MB-231 was similar to that observed in MCF-10A. […] Nevertheless, it is worth considering that NIH/3T3 are mouse fibroblasts, while the other three cell lines are human cells; therefore, the physiological differences between both species could play an essential role in the exerted effect. Several studies have evaluated 2-aminobenzothiazole derivatives against various cell lines. The targets of this kind of compounds are wide, including HDAC6, tyrosine kinase receptors family (CSF1R kinase, EGFR kinase, VEGFR-2 kinase, FAK kinase), serine/threonine kinases, lysine-specific demethylase (LSD1), phosphoinositide 3-kinase (PI3K), topoisomerases (I and II), Heat shock protein (HSP90), p53, nuclear receptor binding set (NSD1), microsomal prostaglandin E synthase-1 (mPGES-1), and also as chelators of metal ions, which are necessaries for critical biological processes such as gene expression, oxygen transport, and cell respiration. In all cases, the IC50 values were reported in a wide range, from 1 nM to 50 µM. On the other hand, our research group reported a family of MTAs containing 2-aminopyridine, with an activity range of 0.19–18 µM against several human cancer cell lines (A2780-wt, A2780-cis-MSTO-211H, and HT-29). […] Whereas 1c could be a feasible candidate to obtain better results compared with 1a, 2a–c, which were highly cytotoxic to non-tumorigenic cells. As a perspective, the synergic activity of 1c, in combination with antioxidants like curcumin, resveratrol, and quercetin, could also be explored, with the aim to sensitize cancer cells against cytotoxic agents and diminish their toxicity in non-tumorigenic cells. In contrast, MTX, which is an antineoplastic drug, is widely used for many kinds of cancer treatments, including breast cancer. Their mechanism of action is related to the inhibition of dihydrofolate reductase (DHFR). […] Nevertheless, MTX exerted an undesirable effect on NIH/3T3 cells. Although the compounds were not better than MTX, their antiproliferative effect was similar to 2ABT, thioureas, 3-carboxy-coumarin sulfonamides, pyrimethamine conjugates, and N-hydroxycinnamide analogs. Highlighting its low toxicity to non-tumor cells, 1c might be a better option than methotrexate to reduce adverse side effects associated with chemotherapy.
(§2) MDA-MB-231 adenocarcinoma cell line was procured from ATCC (CRM-HTB-26TM). […] Cell culture was performed in the appropriate medium for each cell line (MCF-7, MDA-MB-231, MCF-10A, and NIH/3T3). MCF-7, MDA-MB-231, and NIH/3T3 cells were grown in Dulbecco’s modified Eagle Medium (DMEM) high-glucose with phenol red, supplemented with fetal bovine serum inactivated by heat (10%) (BioWest, Miami, FL, USA) and antibiotic (100 U/mL penicillin and […] streptomycin). MCF-10A were grown in DMEM-F12 medium, supplemented with 5% of horse serum inactivated by heat (Biowest, Miami, FL, USA), […] of insulin, 20 ng/mL of epidermal growth factor, 500 ng/mL hydrocortisone, and antibiotic (100 U/mL penicillin and […] streptomycin). All cell lines were incubated at 37 °C with 5% CO2 after reaching 80% confluence at 24 h. The cells were seeded in a 96-well cell culture plate (10,000 cells/well). After incubation, the cells were treated with compounds (1a–1d and 2a–2d) at varying concentrations (100, 50, 25, 12.5, and 6.25 µM) and then incubated for 42 h under standard conditions. […]

MDA-MB-231 cells [2] = assay: Antiproliferative activity, MTT assay, MDA-MB-231; format: cell-based; conditions: Homo sapiens, mean ± SD of at least three independent experiments
Protocol: as §1, §2

NIH/3T3 cells [3] = assay: Antiproliferative activity, MTT assay, NIH/3T3; format: cell-based; conditions: NIH3T3, mouse fibroblast, mean ± SD
Protocol: as §1
as §2, with “streptomycin).” for “streptomycin). All cell lines were incubated at 37 °C with 5% CO2 after reaching 80% confluence at 24 h. The cells were seeded in a 96-well cell culture plate (10,000 cells/well). After incubation, the cells were treated with compounds (1a–1d and 2a–2d) at varying concentrations (100, 50, 25, 12.5, and 6.25 µM) and then incubated for 42 h under standard conditions.”

MCF-10A cells = assay: Antiproliferative activity, MTT assay, MCF-10A; format: cell-based; conditions: Homo sapiens, non-tumorigenic cells, mean ± SD
Protocol: as §1, §2

MDA-MB-231 cells [4] = assay: Wound closure (cell migration) assay; format: cell-based, human; conditions: MDA-MB-231, treated at IC50 concentration; for wound closure rate: 0-48 h; for maximum wound closure: 48 h
Protocol: The triple-negative cancer, produced by MDA-MB-231 cells, is highly invasive and metastatic, capable of migrating to other tissues. […] The wound closure begins at 12 h, at this time, there is a significant difference between cells treated with compound 1c and MTX compared with non-treated cells. Nevertheless, the maximum effect is observed at 48 h, when wound closure is complete for non-treated cells. For cells treated with compound 1c, the maximum wound closure was 51%, while for the reference drug, MTX, it was 38% at 48 h. In both cases, there is a significant difference from the control, with wound closure rates of −2.0 ± 0.1 (R = 0.98), −1.0 ± 0.1 (R = 0.94), and −0.7 ± 0.1 (0.88) in %area/h for control, 1c, and MTX, respectively. The results confirmed the capability of 1c to prevent cell migration in MDA-MB-231 cells, similar to the reference drug MTX, and other reported BTs.
The wound closure assay was performed according to the reported methods on MDA-MB-231 cell line. For this purpose, cells (2 × 10^5) were seeded in complete medium on a 24-well plate and incubated for 24 h under standard conditions. After that, the wound gap was made by scratching the cell monolayer with a 200 µL pipette tip. Cell debris and exhausted medium were discarded, washed with PBS, and the medium was replaced. […] The wound closure was monitored by microscopy at 12, 24, and 48 h, and the wound area was measured in duplicate in three independent experiments using ImageJ (1.54k) software. The results were expressed as a percentage of the control (cell culture medium with 0.1% DMSO).

NIH/3T3 cells [5] = assay: Annexin V apoptosis induction assay, NIH/3T3; format: cell-based, mouse; conditions: NIH/3T3, IC50 concentration, 48 h; control 81%
From the text: (§3) Apoptosis induction is one of the most common mechanisms of cell death exerted by antineoplastic drugs. This is because cancer cells can evade this cell death mechanism, allowing malignant cells to survive and leading to tumor progression. Apoptosis involves several physiological cell modifications, including the destabilization of the phospholipid bilayer and the subsequent exposure of phosphatidylserine. This phospholipid can be easily recognized by annexin V, a protein that is useful for identifying apoptotic cells. Therefore, apoptosis was determined for both breast cancer human cell lines, MCF-7 and MDA-MB-231, and the NIH/3T3 non-tumoral cell line. […] Regarding non-malignant fibroblast cells (NIH/3T3), a slight decrease in live cells was observed only for compound 1c (60%) compared to the control (81%) and MTX (72%), as shown in Figure 12.
(§4) The annexin V cytometry assay was performed on malignant cells (MCF-7 and MDA-MB-231) and non-malignant cells (NIH/3T3) using the Annexin V-FITC Apoptosis Detection kit (Santa Cruz Biotechnology). The corresponding cells were seeded in a 12-well plate as previously described and incubated under standard conditions (1.5 × 10^5 cells/well). After 24 h of incubation, the exhausted medium was replaced, and cells were treated at the IC50 concentration for compound 1c and MTX. […]

MCF-7 cells [6] = assay: Annexin V apoptosis induction assay, MCF-7; format: cell-based, human; conditions: MCF-7, IC50 concentration, 48 h
From the text: as §3, §4

MDA-MB-231 cells [7] = assay: Annexin V apoptosis induction assay, MDA-MB-231; format: cell-based, human; conditions: MDA-MB-231, IC50 concentration, 48 h
From the text: as §3
The annexin V cytometry assay was performed on malignant cells (MCF-7 and MDA-MB-231) and non-malignant cells (NIH/3T3) using the Annexin V-FITC Apoptosis Detection kit (Santa Cruz Biotechnology). The corresponding cells were seeded in a 12-well plate as previously described and incubated under standard conditions (1.5 × 10^5 cells/well). After 24 h of incubation, the exhausted medium was replaced, and cells were treated at the IC50 concentration for compound 1c and MTX. After 48 h, the exhausted medium was recovered for cytometric measurements, and the cells were trypsinized, inactivated with DMEM, centrifuged, washed with PBS and centrifuged (1500 rpm, 5 min, 4 °C). The PBS was removed, and the remainder was drained on gauze. The formed pellet was shaken with 300 µL of the buffer from the flow cytometry kit (Miltenyi Biotec, Bergisch Gladbach, Germany), which had previously been prepared at a concentration of 1%. The sample was left to incubate for 15 min at room temperature, protected from light, and then 100 µL aliquots were taken to the flow cytometry equipment (BD FACSAria Fusion, Franklin Lakes, NJ, USA). Five microliters of annexin and two microliters of propidium iodide (100 µg/mL) were added to the reaction with the cells. […]

Row | SMILES | IC50 (MCF-7 cells [1]) [µM] | IC50 (MDA-MB-231 cells [2]) [µM] | IC50 (NIH/3T3 cells [3]) [µM] | IC50 (MCF-10A cells) [µM] | selectivity toward malignant cells, fold more active in MCF-7 than in MCF-10A (MCF-7 cells [1]; MCF-7 vs MCF-10A) [fold] | fold more active on MCF-7 cells than on MDA-MB-231 cells (MCF-7 cells [1]; MCF-7 vs MDA-MB-231) [fold] | wound closure rate (MDA-MB-231 cells [4]) [%area/h] | maximum wound closure (MDA-MB-231 cells [4]) [%] | live cells (NIH/3T3 cells [5]) [%] | late apoptosis cell population (MCF-7 cells [6]) | effect on cell viability (MDA-MB-231 cells [7]) | percentage of late apoptotic cells (MDA-MB-231 cells [7]; non-treated cells 14%) [%]
1 | O=C(Nc1nc2ccccc2s1)C(=S)NCc1ccccc1 [1a, N-(benzo[d]thiazol-2-yl)-2-(benzylamino)-2-thioxoacetamide] | 95 ± 13 | 72 ± 7 | 29 ± 6 | 44 ± 6 |  |  |  |  |  |  |  | 
2 | COc1ccc(CNC(=S)C(=O)Nc2nc3ccccc3s2)cc1 [1c, N-(benzo[d]thiazol-2-yl)-2-((4-methoxybenzyl)amino)-2-thioxoacetamide] | 32 ± 5 | 52 ± 8 | 41 ± 5 | 55 ± 6 | 1.7 | 1.6 | −1.0 ± 0.1 | 51 | 60 | significant increase | did not show a significant effect | 
3 | COc1ccc(CNC(=S)C(=O)Nc2nc3ccc(C)cc3s2)cc1 [2c, 2-((4-methoxybenzyl)amino)-N-(6-methylbenzo[d]thiazol-2-yl)-2-thioxoacetamide] | 88 ± 6 | > 100 | 31 ± 6 | 74 ± 12 |  |  |  |  |  |  |  | 
4 | CN(Cc1cnc2nc(N)nc(N)c2n1)c1ccc(C(=O)N[C@@H](CCC(=O)O)C(=O)O)cc1 [MTX, methotrexate, reference compound] | 0.8 ± 0.1 | 28 ± 3 | 26 ± 5 | 14 ± 3 |  |  | −0.7 ± 0.1 | 38 | 72 | significant increase | did not show a significant effect | 9

Second part, led by results:

Row | IC50 (MCF-7 cells [1]) [µM] | IC50 (MDA-MB-231 cells [2]) [µM] | SMILES | IC50 (NIH/3T3 cells [3]) [µM] | IC50 (MCF-10A cells) [µM] | selectivity toward malignant cells, fold more active in MCF-7 than in MCF-10A (MCF-7 cells [1]; MCF-7 vs MCF-10A) [fold] | fold more active on MCF-7 cells than on MDA-MB-231 cells (MCF-7 cells [1]; MCF-7 vs MDA-MB-231) [fold] | wound closure rate (MDA-MB-231 cells [4]) [%area/h] | maximum wound closure (MDA-MB-231 cells [4]) [%] | live cells (NIH/3T3 cells [5]) [%] | late apoptosis cell population (MCF-7 cells [6]) | effect on cell viability (MDA-MB-231 cells [7]) | percentage of late apoptotic cells (MDA-MB-231 cells [7]; non-treated cells 14%) [%]
5 | > 100 | > 100 | COc1ccccc1CNC(=S)C(=O)Nc1nc2ccccc2s1 [1b, N-(benzo[d]thiazol-2-yl)-2-((2-methoxybenzyl)amino)-2-thioxoacetamide] |  |  |  |  |  |  |  |  |  | 
6 | > 100 | > 100 | O=C(Nc1nc2ccccc2s1)C(=S)NCCc1ccccc1 [1d, N-(benzo[d]thiazol-2-yl)-2-(phenethylamino)-2-thioxoacetamide] |  |  |  |  |  |  |  |  |  | 
7 | 72 ± 9 | > 100 | Cc1ccc2nc(NC(=O)C(=S)NCc3ccccc3)sc2c1 [2a, 2-(benzylamino)-N-(6-methylbenzo[d]thiazol-2-yl)-2-thioxoacetamide] | 22 ± 4 | 43 ± 6 |  |  |  |  |  |  |  | 
8 | > 100 | > 100 | COc1ccccc1CNC(=S)C(=O)Nc1nc2ccc(C)cc2s1 [2b, 2-((2-methoxybenzyl)amino)-N-(6-methylbenzo[d]thiazol-2-yl)-2-thioxoacetamide] |  | 42 ± 5 |  |  |  |  |  |  |  | 
9 | > 100 | > 100 | Cc1ccc2nc(NC(=O)C(=S)NCCc3ccccc3)sc2c1 [2d, N-(6-methylbenzo[d]thiazol-2-yl)-2-(phenethylamino)-2-thioxoacetamide] |  |  |  |  |  |  |  |  |  | 
